{"source": "patent US9708334B2", "about": "“Substituted 2,4,5,6-tetrahydropyrrolo[3,4-c]pyrazole and 4,5,6,7-tetrahydro-2H-pyrazolo[4,3-c]pyridine compounds as GlyT1 inhibitors” (DART NEUROSCIENCE (CAYMAN) LTD., priority 2014, dated 2017)", "data": [{"target": "T1, GlyT1 (Homo sapiens, UniProt P48067)", "T1 construct": "expressed in transfected cells", "T1 sequence (P48067 1-706)": "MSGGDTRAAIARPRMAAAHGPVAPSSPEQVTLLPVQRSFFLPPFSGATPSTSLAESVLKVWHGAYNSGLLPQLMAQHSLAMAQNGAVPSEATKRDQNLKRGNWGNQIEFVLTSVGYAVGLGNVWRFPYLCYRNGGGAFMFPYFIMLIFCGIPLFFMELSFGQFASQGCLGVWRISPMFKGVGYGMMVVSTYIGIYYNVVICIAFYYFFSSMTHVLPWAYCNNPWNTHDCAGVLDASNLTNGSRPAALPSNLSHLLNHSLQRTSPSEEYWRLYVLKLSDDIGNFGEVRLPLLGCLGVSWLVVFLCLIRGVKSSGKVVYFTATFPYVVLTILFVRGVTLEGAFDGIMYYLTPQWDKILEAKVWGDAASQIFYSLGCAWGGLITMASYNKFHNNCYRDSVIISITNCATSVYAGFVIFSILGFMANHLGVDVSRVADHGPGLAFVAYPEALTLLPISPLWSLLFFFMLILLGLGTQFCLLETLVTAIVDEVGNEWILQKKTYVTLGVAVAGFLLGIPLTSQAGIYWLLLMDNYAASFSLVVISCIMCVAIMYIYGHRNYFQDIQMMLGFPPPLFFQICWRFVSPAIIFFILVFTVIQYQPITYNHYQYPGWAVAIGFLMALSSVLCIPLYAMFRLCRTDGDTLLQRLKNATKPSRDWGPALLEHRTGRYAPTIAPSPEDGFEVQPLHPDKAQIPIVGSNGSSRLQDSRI", "assay": "Glycine Transporter 1 (GlyT1) uptake assay, scintillation proximity assay of [14C]-glycine uptake", "type": "cell-based", "conditions": "SPA, four parameter logistic fit, read-out: GlyT1 (pIC50) (converted)", "summary_of_the_method": "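[14C]-glycine uptake read by scintillation proximity on a plate counter. IC50 from four-parameter logistic fit of dose-response data.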", "units": {"IC50": "nM"}, "values": [{"smiles": "C[C@H](Oc1ccc(C#N)c(Cl)c1C(=O)N1Cc2cn(-c3cn(C)cn3)nc2C1)C(F)(F)F", "note": "[Example 292, 2-Chloro-3-[2-(1-methyl-1H-imidazol-4-yl)-2H 4H 5H 6H-pyrrolo[3,4-c]pyrazole-5-carbonyl]-4-{[(2S)-1 1 1-trifluoropropan-2-yl]oxy}benzonitrile]", "IC50": "100 to 1000"}, {"smiles": "CC(C)COc1ccc(S(C)(=O)=O)cc1C(=O)N1Cc2cn(-c3ccc(F)cc3)nc2C1", "note": "[Example 574, 2-(4-Fluorophenyl)-5-[5-methanesulfonyl-2-(2-methylpropoxy)benzoyl]-2H 4H 5H 6H-pyrrolo[3,4-c]pyrazole]", "IC50": "< 100"}, {"smiles": "C[C@H](Oc1ccc(S(C)(=O)=O)cc1C(=O)N1Cc2cn(CC3CCCC3)nc2C1)C(F)(F)F", "note": "[Example 413, 2-(Cyclopentylmethyl)-5-(5-methanesulfonyl-2-{[(2S)-1 1 1-trifluoropropan-2-yl]oxy}benzoyl)-2H 4H 5H 6H-pyrrolo[3,4-c]pyrazole]", "IC50": "< 100"}, {"smiles": "CC(Oc1ccc(S(C)(=O)=O)cc1C(=O)N1CCc2c(cnn2-c2cccc(C(F)(F)F)c2)C1)C(F)(F)F", "note": "(stereo not shown) [Example 162, 5-{5-Methanesulfonyl-2-[(1 1 1-trifluoropropan-2-yl)oxy]benzoyl}-1-[3-(trifluoromethyl)phenyl]-1H 4H 5H 6H 7H-pyrazolo[4,3-c]pyridine]", "IC50": "100 to 1000"}, {"smiles": "CC(Oc1ccc(C#N)c(Cl)c1C(=O)N1CCc2c(cnn2-c2ccc(F)cc2F)C1)C(F)(F)F", "note": "(stereo not shown) [Example 179, 2-Chloro-3-[1-(2 4-difluorophenyl)-1H 4H 5H 6H 7H-pyrazolo[4,3-c]pyridine-5-carbonyl]-4-[(1 1 1-trifluoropropan-2-yl)oxy]benzonitrile]", "IC50": "100 to 1000"}, {"smiles": "COc1c(C#N)ccc(O[C@@H](C)C(F)(F)F)c1C(=O)N1Cc2cn(-c3cc(C)c(F)cn3)nc2C1", "note": "[Example 305, 3-[2-(5-Fluoro-4-methylpyridin-2-yl)-2H 4H 5H 6H-pyrrolo[3,4-c]pyrazole-5-carbonyl]-2-methoxy-4-{[(2 S)-1 1 1-trifluoropropan-2-yl]oxy}benzonitrile]", "IC50": "< 100"}, {"smiles": "CC(Oc1ccc(S(C)(=O)=O)cc1C(=O)N1Cc2cn(-c3ccc(F)cn3)nc2C1)C(F)(F)F", "note": "(stereo not shown) [Example 302, 5-Fluoro-2-(5-{5-methanesulfonyl-2-[(1 1 1-trifluoropropan-2-yl)oxy]benzoyl}-2H 4H 5H 6H-pyrrolo[3,4-c]pyrazol-2-yl)pyridine]", "IC50": "< 100"}, {"smiles": "Cc1cncc(-c2ccc(S(C)(=O)=O)cc2C(=O)N2Cc3cn(-c4ccc(F)cn4)nc3C2)c1", "note": "[Example 549, 5-Fluoro-2-{5-[5-methanesulfonyl-2-(5-methylpyridin-3-yl)benzoyl]-2H 4H 5H 6H-pyrrolo[3,4-c]pyrazol-2-yl}pyridine]", "IC50": "< 100"}, {"smiles": "C[C@H](Oc1ccc(C#N)c(Cl)c1C(=O)N1Cc2cn(-c3cccc(F)c3)nc2C1)C(F)(F)F", "note": "[Example 267, 2-Chloro-3-[2-(3-fluorophenyl)-2H 4H 5H 6H-pyrrolo[3,4-c]pyrazole-5-carbonyl]-4-{[(2S)-1 1 1-trifluoropropan-2-yl]oxy}benzonitrile]", "IC50": "< 100"}, {"smiles": "CC(C)(C)COc1ccc(S(C)(=O)=O)cc1C(=O)N1Cc2cn(-c3ccc(F)c(C(F)F)c3)nc2C1", "note": "[Example 77, 2-[3-(Difluoromethyl)-4-fluorophenyl]-5-[2-(2 2-dimethylpropoxy)-5-methanesulfonylbenzoyl]-2H 4H 5H 6H-pyrrolo[3,4-e]pyrazole]", "IC50": "< 100"}, {"smiles": "CCS(=O)(=O)c1ccc(N2CCC(F)(F)CC2)c(C(=O)N2Cc3cn(-c4cc(F)ccc4F)nc3C2)c1", "note": "[Example 127, 1-{2-[2-(2 5-Difluorophenyl)-2H 4H 5H 6H-pyrrolo[3,4-c]pyrazole-5-carbonyl]-4-(ethanesulfonyl)phenyl}-4 4-difluoropiperidine]", "IC50": "< 100"}, {"smiles": "COc1c(C#N)ccc(OC(C)C(F)(F)F)c1C(=O)N1CCc2nn(-c3ccc(F)cc3)c(C)c2C1", "note": "(stereo not shown) [Example 473, 3-[2-(4-Fluorophenyl)-3-methyl-2H 4H 5H 6H 7H-pyrazolo[4,3-c]pyridine-5-carbonyl]-2-methoxy-4-[(1 1 1-trifluoropropan-2-yl)oxy]benzonitrile]", "IC50": "> 10000"}, {"smiles": "CCOc1cc(-n2cc3c(n2)CN(C(=O)c2cc(C#N)ccc2OC(C)C)C3)ccn1", "note": "[Example 370, 3-[2-(2-Ethoxypyridin-4-yl)-2H 4H 5H 6H-pyrrolo[3,4-c]pyrazole-5-carbonyl]-4-(propan-2-yloxy)benzonitrile]", "IC50": "100 to 1000"}, {"smiles": "CC(Oc1ccc(S(C)(=O)=O)cc1C(=O)N1Cc2cn(-c3ccc(F)cc3)nc2C1)C(F)(F)F", "note": "(stereo not shown) [Example 303, 2-(4-Fluorophenyl)-5-{5-methanesulfonyl-2-[(1 1 1-trifluoropropan-2-yl)oxy]benzoyl}-2H 4H 5H 6H-pyrrolo[3,4-c]pyrazole]", "IC50": "< 100"}, {"smiles": "COc1c(C#N)ccc(O[C@@H](C)C(F)(F)F)c1C(=O)N1Cc2cn(-c3ccc(C(F)(F)F)nc3)nc2C1", "note": "[Example 254]", "IC50": "< 100"}, {"smiles": "CC1(COc2ccc(C#N)c(Cl)c2C(=O)N2CCc3nn(-c4ccccc4)cc3C2)COC1", "note": "[Example 506, 2-Chloro-4-[(3-methyloxetan-3-yl)methoxy]-3-{2-phenyl-2H 4H 5H 6H 7H-pyrazolo[4,3-c]pyridine-5-carbonyl}benzonitrile]", "IC50": "1000 to 10000"}, {"smiles": "CC(Oc1ccc(C#N)c(Cl)c1C(=O)N1CCc2nn(-c3ccncc3)cc2C1)C(F)(F)F", "note": "(stereo not shown) [Example 219, 2-Chloro-3-[2-(pyridin-4-yl)-2H 4H 5H 6H 7H-pyrazolo[4,3-c]pyridine-5-carbonyl]-4-[(1 1 1-trifluoropropan-2-yl)oxy]benzonitrile]", "IC50": "< 100"}, {"smiles": "CS(=O)(=O)c1ccc(N2CCCC2)c(C(=O)N2CCc3nn(-c4ccccc4)cc3C2)c1", "note": "[Example 498, 1-(4-Methanesulfonyl-2-{2-phenyl-2H 4H 5H 6H 7H-pyrazolo[4,3-c]pyridine-5-carbonyl}phenyl)pyrrolidine]", "IC50": "1000 to 10000"}, {"smiles": "C[C@H](Oc1ccc(S(C)(=O)=O)cc1C(=O)N1Cc2cn(-c3ccc(F)c(C(F)F)c3)nc2C1)C(F)(F)F", "note": "[Example 75, 2-[3-(Difluoromethyl)-4-fluorophenyl]-5-(5-methanesulfonyl-2-{[(2S)-1 1 1-trifluoropropan-2-yl]oxy}benzoyl)-2H 4H 5H 6H-pyrrolo[3,4-c]pyrazole]", "IC50": "< 100"}, {"smiles": "COc1c(C#N)ccc(O[C@@H](C)C(F)(F)F)c1C(=O)N1CCc2nn(-c3ccc(F)cn3)cc2C1", "note": "[Example 225, 3-[2-(5-Fluoropyridin-2-yl)-2H 4H 5H 6H 7H-pyrazolo[4,3-c]pyridine-5-carbonyl]-2-methoxy-4-{[(2S)-1 1 1-trifluoropropan-2-yl]oxy}benzonitrile]", "IC50": "100 to 1000"}, {"smiles": "CCOc1c2c(nn1-c1ccc(F)cc1)CCN(C(=O)c1c(OC(C)C(F)(F)F)ccc(C#N)c1Cl)C2", "note": "(stereo not shown) [Example 184, 2-Chloro-3-[3-ethoxy-2-(4-fluorophenyl)-2H 4H 5H 6H 7H-pyrazolo[4,3-c]pyridine-5-carbonyl]-4-[(1 1 1-trifluoropropan-2-yl)oxy]benzonitrile]", "IC50": "1000 to 10000"}, {"smiles": "CS(=O)(=O)c1ccc(N2CCCCC2)c(C(=O)N2Cc3cn(-c4cncc(F)c4)nc3C2)c1", "note": "[Example 116, 3-Fluoro-5-{5-[5-methanesulfonyl-2-(piperidin-1-yl)benzoyl]-2H 4H 5H 6H-pyrrolo[3,4-c]pyrazol-2-yl}pyridine]", "IC50": "< 100"}]}]}
